Results on ten molecules are retold here after ChEMBL document CHEMBL1909570, “Synthesis and antibacterial activity of N4-mono alkyl derivatives of novel glycopeptide LYV07ww01” (2011).

Common to all, as to type: functional
The subject of assay [1] is Enterococcus faecium. In words: Antibacterial activity against Enterococcus faecium 32220 by CLSI agar microdilution method.
Assay [2] relates to Streptococcus. In words: Antibacterial activity against Streptococcus gamma 32206 by CLSI agar microdilution method.
The subject of assay [3] is Staphylococcus aureus. In words: Antibacterial activity against Staphylococcus aureus 26003 by CLSI agar microdilution method.
For assay [4], the system named is Staphylococcus epidermidis. In words: Antibacterial activity against Staphylococcus epidermidis 26069 by CLSI agar microdilution method.
Assay [5] has as its system Staphylococcus. In words: Antibacterial activity against Staphylococcus albus 26101 by CLSI agar microdilution method.
For assay [6], the system named is Streptococcus pneumoniae. In words: Antibacterial activity against Streptococcus pneumoniae 31002 by CLSI agar microdilution method.

≈ marks a conversion by molar mass, not a printed value.

`CCCCCCCCOc1ccc(CN[C@@]2(C)C[C@H](O[C@H]3[C@H](Oc4c5cc6cc4Oc4ccc(cc4Cl)[C@@H](O[C@H]4C[C@](C)(N)[C@H](O)[C@H](C)O4)[C@@H]4NC(=O)[C@H](NC(=O)[C@@H]6NC(=O)[C@H](CC(N)=O)NC(=O)[C@H](NC(=O)[C@@H](CC(C)C)NC)[C@H](O)c6ccc(c(Cl)c6)O5)c5ccc(O)c(c5)-c5c(O)cc(O)cc5[C@H](C(=O)O)NC4=O)O[C@H](CO)[C@@H](O)[C@@H]3O)O[C@@H](C)[C@H]2O)cc1`: the minimal inhibitory concentration (MIC) in assay [1] was 12.5 µg/mL (≈ 6.9 µM); in assay [2], 6.25 µg/mL (≈ 3.45 µM); in assay [3], 12.5 µg/mL (≈ 6.9 µM); in assay [4], above 25 µg/mL; in assay [5] it was 12.5 µg/mL (≈ 6.9 µM); in assay [6] it was 6.25 µg/mL (≈ 3.45 µM).

With `CCCCCCN[C@@]1(C)C[C@H](O[C@H]2[C@H](Oc3c4cc5cc3Oc3ccc(cc3Cl)[C@@H](O[C@H]3C[C@](C)(N)[C@H](O)[C@H](C)O3)[C@@H]3NC(=O)[C@H](NC(=O)[C@@H]5NC(=O)[C@H](CC(N)=O)NC(=O)[C@H](NC(=O)[C@@H](CC(C)C)NC)[C@H](O)c5ccc(c(Cl)c5)O4)c4ccc(O)c(c4)-c4c(O)cc(O)cc4[C@H](C(=O)O)NC3=O)O[C@H](CO)[C@@H](O)[C@@H]2O)O[C@@H](C)[C@H]1O`, the MIC was above 25 µg/mL in assay [1]; 1.56 µg/mL (≈ 0.93 µM) in assay [2]; 1.56 µg/mL (≈ 0.93 µM) in assay [3]; above 25 µg/mL in assay [4]; 3.13 µg/mL (≈ 1.87 µM) in assay [5]; 0.78 µg/mL (≈ 0.465 µM) in assay [6].

For `CCCCCCCCN[C@@]1(C)C[C@H](O[C@H]2[C@H](Oc3c4cc5cc3Oc3ccc(cc3Cl)[C@@H](O[C@H]3C[C@](C)(N)[C@H](O)[C@H](C)O3)[C@@H]3NC(=O)[C@H](NC(=O)[C@@H]5NC(=O)[C@H](CC(N)=O)NC(=O)[C@H](NC(=O)[C@@H](CC(C)C)NC)[C@H](O)c5ccc(c(Cl)c5)O4)c4ccc(O)c(c4)-c4c(O)cc(O)cc4[C@H](C(=O)O)NC3=O)O[C@H](CO)[C@@H](O)[C@@H]2O)O[C@@H](C)[C@H]1O`, the minimum inhibitory concentration (MIC) in assay [1] was 1.56 µg/mL (≈ 0.915 µM); in assay [2], 1.56 µg/mL (≈ 0.915 µM); in assay [3] it was 3.13 µg/mL (≈ 1.84 µM); in assay [4], above 25 µg/mL; in assay [5] it was 3.13 µg/mL (≈ 1.84 µM); in assay [6], 0.39 µg/mL (≈ 0.229 µM).

Take `CN[C@H](CC(C)C)C(=O)N[C@H]1C(=O)N[C@@H](CC(N)=O)C(=O)N[C@H]2C(=O)N[C@H]3C(=O)N[C@H](C(=O)N[C@@H](C(=O)O)c4cc(O)cc(O)c4-c4cc3ccc4O)[C@H](O[C@H]3C[C@](C)(N)[C@H](O)[C@H](C)O3)c3ccc(c(Cl)c3)Oc3cc2cc(c3O[C@@H]2O[C@H](CO)[C@@H](O)[C@H](O)[C@H]2O[C@H]2C[C@](C)(NCc3cccs3)[C@H](O)[C@H](C)O2)Oc2ccc(cc2Cl)[C@H]1O`: the MIC in assay [1] is 12.5 µg/mL (≈ 7.4 µM); in assay [2], 25 µg/mL (≈ 14.8 µM); in assay [3] it was 25 µg/mL (≈ 14.8 µM); in assay [4], above 25 µg/mL; in assay [5] it was above 25 µg/mL; in assay [6], 6.25 µg/mL (≈ 3.7 µM).

Regarding `CN[C@H](CC(C)C)C(=O)N[C@H]1C(=O)N[C@@H](CC(N)=O)C(=O)N[C@H]2C(=O)N[C@H]3C(=O)N[C@H](C(=O)N[C@@H](C(=O)O)c4cc(O)cc(O)c4-c4cc3ccc4O)[C@H](O[C@H]3C[C@](C)(N)[C@H](O)[C@H](C)O3)c3ccc(c(Cl)c3)Oc3cc2cc(c3O[C@@H]2O[C@H](CO)[C@@H](O)[C@H](O)[C@H]2O[C@H]2C[C@](C)(NCc3cccc(Cl)c3)[C@H](O)[C@H](C)O2)Oc2ccc(cc2Cl)[C@H]1O`, the MIC is 1.56 µg/mL (≈ 0.909 µM) in assay [1]; 0.78 µg/mL (≈ 0.454 µM) in assay [2]; 1.56 µg/mL (≈ 0.909 µM) in assay [3]; above 25 µg/mL in assay [4]; 1.56 µg/mL (≈ 0.909 µM) in assay [5]; 0.78 µg/mL (≈ 0.454 µM) in assay [6].

On to `CCCCCCCN[C@@]1(C)C[C@H](O[C@H]2[C@H](Oc3c4cc5cc3Oc3ccc(cc3Cl)[C@@H](O[C@H]3C[C@](C)(N)[C@H](O)[C@H](C)O3)[C@@H]3NC(=O)[C@H](NC(=O)[C@@H]5NC(=O)[C@H](CC(N)=O)NC(=O)[C@H](NC(=O)[C@@H](CC(C)C)NC)[C@H](O)c5ccc(c(Cl)c5)O4)c4ccc(O)c(c4)-c4c(O)cc(O)cc4[C@H](C(=O)O)NC3=O)O[C@H](CO)[C@@H](O)[C@@H]2O)O[C@@H](C)[C@H]1O`, for which the MIC was above 25 µg/mL in assay [1]; 1.56 µg/mL (≈ 0.923 µM) in assay [2]; 1.56 µg/mL (≈ 0.923 µM) in assay [3]; above 25 µg/mL in assay [4]; 1.56 µg/mL (≈ 0.923 µM) in assay [5]; 0.78 µg/mL (≈ 0.461 µM) in assay [6].

With `CCCCCCCCCCN[C@@]1(C)C[C@H](O[C@H]2[C@H](Oc3c4cc5cc3Oc3ccc(cc3Cl)[C@@H](O[C@H]3C[C@](C)(N)[C@H](O)[C@H](C)O3)[C@@H]3NC(=O)[C@H](NC(=O)[C@@H]5NC(=O)[C@H](CC(N)=O)NC(=O)[C@H](NC(=O)[C@@H](CC(C)C)NC)[C@H](O)c5ccc(c(Cl)c5)O4)c4ccc(O)c(c4)-c4c(O)cc(O)cc4[C@H](C(=O)O)NC3=O)O[C@H](CO)[C@@H](O)[C@@H]2O)O[C@@H](C)[C@H]1O`, the MIC in assay [1] is above 25 µg/mL; in assay [2], 6.25 µg/mL (≈ 3.61 µM); in assay [3], 6.25 µg/mL (≈ 3.61 µM); in assay [4] it was above 25 µg/mL; in assay [5] it was 6.25 µg/mL (≈ 3.61 µM); in assay [6] it was 6.25 µg/mL (≈ 3.61 µM).

With `CCCCCCCCCOc1ccc(CN[C@@]2(C)C[C@H](O[C@H]3[C@H](Oc4c5cc6cc4Oc4ccc(cc4Cl)[C@@H](O[C@H]4C[C@](C)(N)[C@H](O)[C@H](C)O4)[C@@H]4NC(=O)[C@H](NC(=O)[C@@H]6NC(=O)[C@H](CC(N)=O)NC(=O)[C@H](NC(=O)[C@@H](CC(C)C)NC)[C@H](O)c6ccc(c(Cl)c6)O5)c5ccc(O)c(c5)-c5c(O)cc(O)cc5[C@H](C(=O)O)NC4=O)O[C@H](CO)[C@@H](O)[C@@H]3O)O[C@@H](C)[C@H]2O)cc1`, the MIC in assay [1] was 12.5 µg/mL (≈ 6.85 µM); in assay [2], 12.5 µg/mL (≈ 6.85 µM); in assay [3] it was 12.5 µg/mL (≈ 6.85 µM); in assay [4] it was above 25 µg/mL; in assay [5], 25 µg/mL (≈ 13.7 µM); in assay [6] it was 12.5 µg/mL (≈ 6.85 µM).

Take `CN[C@H](CC(C)C)C(=O)N[C@H]1C(=O)N[C@@H](CC(N)=O)C(=O)N[C@H]2C(=O)N[C@H]3C(=O)N[C@H](C(=O)N[C@@H](C(=O)O)c4cc(O)cc(O)c4-c4cc3ccc4O)[C@H](O[C@H]3C[C@](C)(N)[C@H](O)[C@H](C)O3)c3ccc(c(Cl)c3)Oc3cc2cc(c3O[C@@H]2O[C@H](CO)[C@@H](O)[C@H](O)[C@H]2O[C@H]2C[C@](C)(NCc3cc(F)c(F)cc3F)[C@H](O)[C@H](C)O2)Oc2ccc(cc2Cl)[C@H]1O`: the MIC in assay [1] turned out to be 1.56 µg/mL (≈ 0.898 µM); in assay [2], 12.5 µg/mL (≈ 7.2 µM); in assay [3], 1.56 µg/mL (≈ 0.898 µM); in assay [4], 12.5 µg/mL (≈ 7.2 µM); in assay [5], 3.13 µg/mL (≈ 1.8 µM); in assay [6], 1.56 µg/mL (≈ 0.898 µM).

For the molecule `CN[C@H](CC(C)C)C(=O)N[C@H]1C(=O)N[C@@H](CC(N)=O)C(=O)N[C@H]2C(=O)N[C@H]3C(=O)N[C@H](C(=O)N[C@@H](C(=O)O)c4cc(O)cc(O)c4-c4cc3ccc4O)[C@H](O[C@H]3C[C@](C)(N)[C@H](O)[C@H](C)O3)c3ccc(c(Cl)c3)Oc3cc2cc(c3O[C@@H]2O[C@H](CO)[C@@H](O)[C@H](O)[C@H]2O[C@H]2C[C@](C)(NCc3ccc(Oc4cccc(OC)c4)cc3)[C@H](O)[C@H](C)O2)Oc2ccc(cc2Cl)[C@H]1O`, the minimum inhibitory concentration (MIC) in assay [1] was 3.13 µg/mL (≈ 1.73 µM); in assay [2], 0.78 µg/mL (≈ 0.432 µM); in assay [3], 3.13 µg/mL (≈ 1.73 µM); in assay [4] it was above 25 µg/mL; in assay [5], 3.13 µg/mL (≈ 1.73 µM); in assay [6], 3.13 µg/mL (≈ 1.73 µM).
